Values joined by “and” are separate entries in the source; they are usually repeats but may differ in a detail not shown here. Equal entries are not always repeated. Records with an inconclusive call do not appear.
System: BDF1 mice, s.c. Lewis lung carcinoma, T/C %
Test: NCI In Vivo Anticancer Drug Screen. Data for tumor model Lewis Lung Carcinoma (subcutaneous) in B6D2F1 (BDF1) mice
Outline: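 Antitumor effect in vivo is scored from survival or tumor burden, reported as treated relative to vehicle controls.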

[1] = endpoint: mean tumor weight, dose: 100.0 mg/kg/injection, schedule: Q01DX011 (ip), vehicle: saline, higher = larger tumour
[2] = endpoint: mean tumor weight, dose: 200.0 mg/kg/injection, schedule: Q01DX011 (ip), vehicle: saline, higher = larger tumour

## CC(/C=N/N=C(N)N)=N\N=C(N)N
endpoint: mean tumor weight, dose: 15.0 mg/kg/injection, schedule: Q01DX011 (ip), vehicle: saline, higher = larger tumour
  T/C: 119 % of control
endpoint: mean tumor weight, dose: 30.0 mg/kg/injection, schedule: Q01DX011 (ip), vehicle: saline, higher = larger tumour
  T/C: 88 % of control
endpoint: mean tumor weight, dose: 60.0 mg/kg/injection, schedule: Q01DX011 (ip), vehicle: saline, higher = larger tumour
  T/C: 46 % of control

## CCOC(=O)C(=CNc1cccc(Cl)c1)C(=O)OCC
endpoint: mean tumor weight, dose: 148.0 mg/kg/injection, schedule: Q01DX011 (ip), vehicle: other, higher = larger tumour
  T/C: 153 % of control
endpoint: mean tumor weight, dose: 222.0 mg/kg/injection, schedule: Q01DX011 (ip), vehicle: other, higher = larger tumour
  T/C: 113 % of control

## NC(=O)c1[nH]nc(C2OC(CO)C(O)C2O)c1O (stereo not drawn)
endpoint: median survival time, dose: 1.73 mg/kg/injection, schedule: Q04DX003 (iv), vehicle: saline, higher = longer survival
  T/C: 191 % of control
endpoint: median survival time, dose: 5.2 mg/kg/injection, schedule: Q04DX003 (iv), vehicle: saline, higher = longer survival
  T/C: 117 % of control
endpoint: median survival time, dose: 15.6 mg/kg/injection, schedule: Q04DX003 (iv), vehicle: saline, higher = longer survival
  T/C: 69 % of control

## CC1OC(Oc2c(-c3ccc(O)c(O)c3)oc3cc(O)cc(O)c3c2=O)C(O)C(O)C1O (stereo not drawn)
endpoint: mean tumor weight, dose: 62.5 mg/kg/injection, schedule: Q01DX011 (ip), vehicle: saline, higher = larger tumour
  T/C: 92 % of control
endpoint: mean tumor weight, dose: 125.0 mg/kg/injection, schedule: Q01DX011 (ip), vehicle: saline, higher = larger tumour
  T/C: 93 % of control
endpoint: mean tumor weight, dose: 250.0 mg/kg/injection, schedule: Q01DX011 (ip), vehicle: saline, higher = larger tumour
  T/C: 99 % of control
endpoint: mean tumor weight, dose: 500.0 mg/kg/injection, schedule: Q01DX011 (ip), vehicle: saline, higher = larger tumour
  T/C: 51 % of control

## O=[N+]([O-])c1cccc([N+](=O)[O-])c1Cl
endpoint: mean tumor weight, dose: 37.0 mg/kg/injection, schedule: Q01DX011 (ip), vehicle: other, higher = larger tumour
  T/C: 116 % of control
endpoint: mean tumor weight, dose: 55.0 mg/kg/injection, schedule: Q01DX011 (ip), vehicle: other, higher = larger tumour
  T/C: 89 % of control

## CC(=O)N(C)C(C(=O)N1CC(C)CC1C(=O)N(C)C1C(=O)NC(CC(C)C)C(=O)N2CC(C)CC2C(=O)NC(CC(C)C)C(=O)N(C)C(C(C)C)C(=O)N2CCCC2C(=O)N(C)C(CC(C)C)C(=O)NCC(=O)OC1C)C(C)C (stereo not drawn)
endpoint: median survival time, dose: 9.4 mg/kg/injection, schedule: Q01DX009 (ip), vehicle: Klucel (hydroxypropylcellulose) (HPC), higher = longer survival
  T/C: 94 % of control
endpoint: median survival time, dose: 18.75 mg/kg/injection, schedule: Q01DX009 (ip), vehicle: Klucel (hydroxypropylcellulose) (HPC), higher = longer survival
  T/C: 98 % of control
endpoint: median survival time, dose: 37.5 mg/kg/injection, schedule: Q01DX009 (ip), vehicle: Klucel (hydroxypropylcellulose) (HPC), higher = longer survival
  T/C: 96 % of control

## Cc1cccc(NC(=O)N(CCCl)N=O)c1
endpoint: median survival time, dose: 0.38 mg/kg/injection, schedule: Q01DX009 (ip), vehicle: saline with Tween-80, higher = longer survival
  T/C: 96 % of control
endpoint: median survival time, dose: 0.75 mg/kg/injection, schedule: Q01DX009 (ip), vehicle: saline with Tween-80, higher = longer survival
  T/C: 102 % of control
endpoint: median survival time, dose: 3.0 mg/kg/injection, schedule: Q01DX009 (ip), vehicle: saline with Tween-80, higher = longer survival
  T/C: 92 % of control

## COc1ccccc1NC(=O)N(CCCl)N=O
endpoint: median survival time, dose: 0.39 mg/kg/injection, schedule: Q01DX009 (ip), vehicle: saline with Tween-80, higher = longer survival
  T/C: 95 % of control
endpoint: median survival time, dose: 0.78 mg/kg/injection, schedule: Q01DX009 (ip), vehicle: saline with Tween-80, higher = longer survival
  T/C: 88 % of control
endpoint: median survival time, dose: 1.56 mg/kg/injection, schedule: Q01DX009 (ip), vehicle: saline with Tween-80, higher = longer survival
  T/C: 93 % of control
endpoint: median survival time, dose: 3.13 mg/kg/injection, schedule: Q01DX009 (ip), vehicle: saline with Tween-80, higher = longer survival
  T/C: 98 % of control

## c1ccc(N/N=C2/CCN3CCCc4cccc2c43)cc1
endpoint: median survival time, dose: 12.5 mg/kg/injection, schedule: Q04DX003 (ip), vehicle: DMSO, higher = longer survival
  T/C: 105 % of control
endpoint: median survival time, dose: 25.0 mg/kg/injection, schedule: Q04DX003 (ip), vehicle: DMSO, higher = longer survival
  T/C: 87 % of control
endpoint: median survival time, dose: 50.0 mg/kg/injection, schedule: Q04DX003 (ip), vehicle: DMSO, higher = longer survival
  T/C: 109 % of control

## Nc1nc(SN=Nc2ccc(S(N)(=O)=O)cc2)c2[nH]cnc2n1
endpoint: mean tumor weight, dose: 0.6 mg/kg/injection, schedule: Q01DX011 (ip), vehicle: saline, higher = larger tumour
  T/C: 64 % of control
endpoint: mean tumor weight, dose: 1.0 mg/kg/injection, schedule: Q01DX011 (ip), vehicle: saline, higher = larger tumour
  T/C: 43 % of control
endpoint: mean tumor weight, dose: 1.5 mg/kg/injection, schedule: Q01DX011 (ip), vehicle: saline, higher = larger tumour
  T/C: 93 % of control
endpoint: mean tumor weight, dose: 2.2 mg/kg/injection, schedule: Q01DX011 (ip), vehicle: other, higher = larger tumour
  T/C: 67 % of control
endpoint: mean tumor weight, dose: 2.2 mg/kg/injection, schedule: Q01DX011 (ip), vehicle: saline, higher = larger tumour
  T/C: 52 % of control and 67 % of control
endpoint: mean tumor weight, dose: 3.3 mg/kg/injection, schedule: Q01DX011 (ip), vehicle: other, higher = larger tumour
  T/C: 72 % of control
endpoint: mean tumor weight, dose: 3.3 mg/kg/injection, schedule: Q01DX011 (ip), vehicle: saline, higher = larger tumour
  T/C: 36 % of control
endpoint: mean tumor weight, dose: 5.0 mg/kg/injection, schedule: Q01DX011 (ip), vehicle: other, higher = larger tumour
  T/C: 35 % of control
endpoint: mean tumor weight, dose: 5.0 mg/kg/injection, schedule: Q01DX011 (ip), vehicle: saline, higher = larger tumour
  T/C: 40 % of control
endpoint: mean tumor weight, dose: 7.5 mg/kg/injection, schedule: Q01DX011 (ip), vehicle: other, higher = larger tumour
  T/C: 11 % of control
endpoint: mean tumor weight, dose: 7.5 mg/kg/injection, schedule: Q01DX011 (ip), vehicle: saline, higher = larger tumour
  T/C: 19 % of control

## c1ccc(CSc2ncnc3nc[nH]c23)nc1
endpoint: mean tumor weight, dose: 25.0 mg/kg/injection, schedule: Q01DX011 (ip), vehicle: other, higher = larger tumour
  T/C: 59 % of control
endpoint: mean tumor weight, dose: 50.0 mg/kg/injection, schedule: Q01DX011 (ip), vehicle: other, higher = larger tumour
  T/C: 109 % of control
endpoint: mean tumor weight, dose: 100.0 mg/kg/injection, schedule: Q01DX011 (ip), vehicle: other, higher = larger tumour
  T/C: 63 % of control

## OC(CCl)CN1CC[N+]2(CC1)CC[N+]1(CCN(CC(O)CCl)CC1)CC2 (stereo not drawn)
endpoint: median survival time, dose: 40.0 mg/kg/injection, schedule: Q01DX009 (ip), vehicle: saline, higher = longer survival
  T/C: 107 % of control and 112 % of control
endpoint: median survival time, dose: 80.0 mg/kg/injection, schedule: Q01DX009 (ip), vehicle: saline, higher = longer survival
  T/C: 114 % of control and 121 % of control
endpoint: median survival time, dose: 160.0 mg/kg/injection, schedule: Q01DX009 (ip), vehicle: saline, higher = longer survival
  T/C: 120 % of control
endpoint: median survival time, dose: 320.0 mg/kg/injection, schedule: Q01DX009 (ip), vehicle: saline, higher = longer survival
  T/C: 150 % of control and 157 % of control

## N=C(N)N
[1]
  T/C: 114 % of control
[2]
  T/C: 89 % of control

## C1CN1c1nc(N2CC2)nc(N2CC2)n1
endpoint: mean tumor weight, dose: 0.25 mg/kg/injection, schedule: Q01DX011 (ip), vehicle: saline, higher = larger tumour
  T/C: 72 % of control and 80 % of control
endpoint: mean tumor weight, dose: 0.5 mg/kg/injection, schedule: Q01DX011 (ip), vehicle: saline, higher = larger tumour
  T/C: 44 % of control and 46 % of control
endpoint: median survival time, dose: 0.05 mg/kg/injection, schedule: Q01DX009 (ip), vehicle: saline, higher = longer survival
  T/C: 96 % of control and 113 % of control
endpoint: median survival time, dose: 0.1 mg/kg/injection, schedule: Q01DX009 (ip), vehicle: saline, higher = longer survival
  T/C: 92 % of control and 106 % of control
endpoint: median survival time, dose: 0.12 mg/kg/injection, schedule: Q01DX009 (ip), vehicle: saline, higher = longer survival
  T/C: 118 % of control
endpoint: median survival time, dose: 0.13 mg/kg/injection, schedule: Q01DX009 (ip), vehicle: saline, higher = longer survival
  T/C: 90 % of control
endpoint: median survival time, dose: 0.2 mg/kg/injection, schedule: Q01DX009 (ip), vehicle: saline, higher = longer survival
  T/C: 100 % of control
endpoint: median survival time, dose: 0.4 mg/kg/injection, schedule: Q01DX009 (ip), vehicle: saline, higher = longer survival
  T/C: 89 % of control and 104 % of control
endpoint: median survival time, dose: 0.5 mg/kg/injection, schedule: Q01DX009 (ip), vehicle: saline with Tween-80, higher = longer survival
  T/C: 123 % of control
endpoint: median survival time, dose: 0.5 mg/kg/injection, schedule: Q08DX002 (ip), vehicle: saline with Tween-80, higher = longer survival
  T/C: 102 % of control
endpoint: median survival time, dose: 0.5 mg/kg/injection, schedule: Q08DX002 (ip), vehicle: saline, higher = longer survival
  T/C: 92 % of control and 111 % of control and 123 % of control
endpoint: median survival time, dose: 1.0 mg/kg/injection, schedule: Q08DX002 (ip), vehicle: saline with Tween-80, higher = longer survival
  T/C: 119 % of control
endpoint: median survival time, dose: 2.0 mg/kg/injection, schedule: Q08DX002 (ip), vehicle: saline with Tween-80, higher = longer survival
  T/C: 115 % of control
endpoint: median survival time, dose: 2.0 mg/kg/injection, schedule: Q08DX002 (ip), vehicle: saline, higher = longer survival
  T/C: 155 % of control
endpoint: median survival time, dose: 4.0 mg/kg/injection, schedule: Q08DX002 (ip), vehicle: saline, higher = longer survival
  T/C: 93 % of control
endpoint: median survival time, dose: 250.0 micrograms/kg/injection, schedule: Q01DX009 (ip), vehicle: saline, higher = longer survival
  T/C: 172 % of control
endpoint: median survival time, dose: 500.0 micrograms/kg/injection, schedule: Q01DX009 (ip), vehicle: saline, higher = longer survival
  T/C: 110 % of control
endpoint: median tumor weight (est.), dose: 0.12 mg/kg/injection, schedule: Q01DX009 (ip), vehicle: saline with Tween-80, higher = larger tumour
  T/C: 95 % of control
endpoint: median tumor weight (est.), dose: 0.25 mg/kg/injection, schedule: Q01DX009 (ip), vehicle: saline with Tween-80, higher = larger tumour
  T/C: 81 % of control
endpoint: median tumor weight (est.), dose: 0.5 mg/kg/injection, schedule: Q01DX009 (ip), vehicle: saline with Tween-80, higher = larger tumour
  T/C: 58 % of control
endpoint: median tumor weight (est.), dose: 0.5 mg/kg/injection, schedule: Q08DX002 (ip), vehicle: saline with Tween-80, higher = larger tumour
  T/C: 97 % of control
endpoint: median tumor weight (est.), dose: 1.0 mg/kg/injection, schedule: Q08DX002 (ip), vehicle: saline with Tween-80, higher = larger tumour
  T/C: 86 % of control
endpoint: median tumor weight (est.), dose: 2.0 mg/kg/injection, schedule: Q08DX002 (ip), vehicle: saline with Tween-80, higher = larger tumour
  T/C: 49 % of control

## Nc1ncnc2c1ncn2C1OC(CO)C(O)C1O (stereo not drawn)
endpoint: mean tumor weight, dose: 50.0 mg/kg/injection, schedule: Q01DX011 (ip), vehicle: saline, higher = larger tumour
  T/C: 108 % of control
[1]
  T/C: 103 % of control
[2]
  T/C: 102 % of control
endpoint: mean tumor weight, dose: 400.0 mg/kg/injection, schedule: Q01DX011 (ip), vehicle: saline, higher = larger tumour
  T/C: 93 % of control
endpoint: median survival time, dose: 70.0 mg/kg/injection, schedule: Q03HX024 (ip), vehicle: saline with Tween-80, higher = longer survival
  T/C: 94 % of control
endpoint: median survival time, dose: 80.0 mg/kg/injection, schedule: Q03HX024 (ip), vehicle: saline with Tween-80, higher = longer survival
  T/C: 98 % of control
endpoint: median survival time, dose: 160.0 mg/kg/injection, schedule: Q03HX024 (ip), vehicle: saline with Tween-80, higher = longer survival
  T/C: 104 % of control
endpoint: median survival time, dose: 240.0 mg/kg/injection, schedule: Q03HX024 (ip), vehicle: saline with Tween-80, higher = longer survival
  T/C: 86 % of control

— PubChem BioAssay AID270 (DTP/NCI, 2004)
